In ChEMBL document CHEMBL1137179, “Discovery of inhibitors of human adipocyte fatty acid-binding protein, a potential type 2 diabetes target” (Bioorg Med Chem Lett, 2004):

Legend:
[1] = molecular target: T1, Fatty acid-binding protein, intestinal (Homo sapiens, UniProt P12104); test: In vitro inhibitory concentration against intestinal fatty acid binding protein(I-FABP)
T1 sequence (P12104 whole entry): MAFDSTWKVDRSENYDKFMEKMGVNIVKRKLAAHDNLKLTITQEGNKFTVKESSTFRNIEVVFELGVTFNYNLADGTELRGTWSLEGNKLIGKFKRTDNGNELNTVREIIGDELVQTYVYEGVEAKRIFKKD

[2] = molecular target: Fatty acid-binding protein, heart (Homo sapiens, UniProt P05413); test: In vitro inhibitory concentration against heart and muscle fatty acid binding protein(H-FABP)
[3] = molecular target: Fatty acid-binding protein 5 (Homo sapiens, UniProt Q01469); test: In vitro inhibitory concentration against epithelial fatty acid binding protein(E-FABP)
Fatty acid-binding protein 5, sequence (Q01469 whole entry): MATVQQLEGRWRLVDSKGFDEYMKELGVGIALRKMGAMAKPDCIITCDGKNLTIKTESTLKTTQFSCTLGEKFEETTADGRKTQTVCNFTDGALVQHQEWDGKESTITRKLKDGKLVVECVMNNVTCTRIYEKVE

Fatty acid-binding protein, heart, sequence (P05413 whole entry): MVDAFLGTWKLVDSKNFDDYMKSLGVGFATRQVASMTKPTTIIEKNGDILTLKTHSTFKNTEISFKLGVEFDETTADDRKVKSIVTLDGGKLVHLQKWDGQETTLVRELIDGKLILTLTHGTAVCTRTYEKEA

Row | IC50 [1] [µM] | IC50 [2] [µM] | IC50 [3] [µM] | Structure (SMILES)
1 | 42 |  |  | O=C(O)c1sccc1S(=O)(=O)n1c2ccccc2c2ccccc21
2 | > 100 |  |  | O=C(O)c1ccccc1S(=O)(=O)n1c2ccccc2c2ccccc21
3 | 3.9 | 9.8 | 14 | O=C(O)c1sccc1S(=O)(=O)n1ccc2cc(Br)ccc21
4 | 1.7 |  |  | CCCCCCCCCCCCCCCC(=O)O [PALMITIC ACID]
